No end group written: not given here.
Assays:
[1] = system: AC133+ cells; assay: Short-term ex-vivo AC133+ cell expansion culture with HXP peptide, trypan blue cell count; type: cell-based, human; settings: HXP peptide withdrawn at 7 days, Hox B4 protein 20 μg/ml added
Procedure: Umbilical Cord Blood (UCB) specimens were collected from full-term deliveries scheduled for elective caesarian sections following hospital ethical regulations.
Samples were diluted 1 in 4 in PBS supplemented with a citrate-based anti-coagulant (0.6% ACD-A, Baxter, France) and Bovine Serum Albumin (0.5% fraction V, Sigma Aldrich, UK) at pH=7.4 and referenced as “ACD-A buffer”. Diluted UCB was carefully overlaid in a 1:4 ratio onto a research grade Ficoll-Paque solution (d:1.077 g/cm^3, Pharmacia Biotech, Sweden) prior to Centrifugation (400 g, 30 minutes, 22° C.). The mononuclear cells (MNC) layer was extracted, washed twice in ACD-A Buffer, pelleted (400 g, 10 minutes) before resuspending in ACD-A buffer and cell aliquots taken for cell viability/enumeration using trypan blue (Sigma Aldrich).
AC133+ cells were obtained from MNC after immunomagnetic separation using the AC133 mini-MACS selection kit (Miltenyi Biotec, Germany): labelling volume 500 μl/10^8 cells in ACD-A buffer containing Fc Receptor-blocking reagent (100 μl, 5 min incubation, 4° C.) before adding colloidal super-paramagnetic MACS MicroBeads conjugated to monoclonal mouse anti-human AC133/1 antibody (100 μl IgG1 isotype, 25 min incubation, 4° C.). Cells were then washed (5 ml ACD-A buffer, 400 g, 10 min, 4° C.) before resuspended cells in 500 μl ACD-A buffer were applied to a chilled MACS positive selection column (MS+/RS+) on a magnet. The column was rinsed with cool ACD-A buffer (4×500 μl) and the AC133− cell population retained at 4° C. After magnet removal AC133+ cells were eluted with 1 ml of cold ACD-A buffer. The AC133+ cell fraction was reapplied to a new column, prior to cell enumeration and viability assays.
AC133+ cells were seeded in duplicate in liquid culture system at 2-4×10^4 cells/ml. […] Cultured cells were then counted at various time points using trypan blue exclusion method described above.

[2] = system: malignant cell lines; assay: Proliferation of malignant cell lines over seven days in culture; type: cell-based, human; parameters: effect of increased dose on proliferation of malignant cell lines: dose or concentration left out as unconfirmed; settings: ten fold increase in dose
Procedure: A number of cell lines representing different malignancies were grown in culture for seven days, and HXP peptide or the control peptide CXP were added to a final concentration of 20 μg/ml on day 3. The bars represent the fold increase of each cell line over the seven days; the empty, dashed bars indicate the CXP peptide treated cells, whilst the solid bars indicate the addition of HXP peptide. Error bars represent the standard error the mean, and n is the number of experiments performed. The cell lines used were: AML—KG1a; Bladder—HT; Breast—SKBR3; Cervical—HeLa; Colon—Colo41; Gastric—MKN-45; Large cell lung cancer—MES; Melanoma—DX3; Ovarian—1847; Pancreatic—Panc-Tu1; Prostate—LNCAP; Renal—HT1376; Small cell lung cancer—NCI-h510A. The change in the expression of the HOX genes expressed by each cell line was assessed by RT-PCR on RNA extracted from the cells at the end of seven days. ‘HOX gene inactivated’ means that the level of expression of each of the listed HOX genes was at least five fold lower in the HXP peptide treated cells compared to the control. *Analysis not yet complete.
A number of cell lines representing different malignancies were grown in culture for seven days, and HXP peptide or the control peptide CXP were added to a final concentration of 200 μg/ml on day 3. The bars represent the fold increase of each cell line over the seven days; the empty, dashed bars indicate the CXP peptide treated cells, whilst the solid bars indicate the addition of HXP peptide. Error bars represent the standard error the mean, and n is the number of experiments performed. The cell lines used were: Bladder—HT; Cervical—HeLa; Melenoma—DX3; Pancreatic—Panc-Tu1.
Solid tumour cell lines (Cancer Research UK) were seeded at 4×10^4 cells/ml, in a liquid culture system made of appropriate medium (see table, Sigma-Aldrich, UK) supplemented with 10% FCS (Sigma Aldrich) and penstrep (1% Sigma). All cell lines were grown with HXP peptide (as in Example 3, 20 μg/ml or 200 μg/ml) or control peptide CXP (20 μg/ml or 200 μg/ml).
KG1a, KG1, HL60 and U937 cell lines (EACC, UK) were seeded at 5×10^4 cells/ml, in a liquid culture system made of RPMI-1640 medium (Life Technologies, UK) supplemented with 10% FCS (Sigma Aldrich) and gentamicin (50 μg/ml Life Technologies) in triplicates. All cell lines were grown with HXP peptide peptide (20 μg/ml) or control peptide (20 μg/ml).
Cell lines were cultured for various time points at 37° C., 5% CO2 in humidified atmosphere and enumerated at various time points.

[3] = system: PBX1, 2 and 3 association with HOX proteins; assay: Cross-linking and Western blot of PBX proteins in KG1a cells (Example 2); type: cell-based, human; settings: 24 hours, 1 μM peptide, EDC cross-linking
Procedure: HXP and control peptides were as described in Example 1. KG1a cells were grown as described in Example 1. KG1a cells were cultured for 24 hours without treatment, or in the presence of 1 μM HXP peptide or control peptide. The cells were harvested and lysed. One aliquot of the cells was subject to cross-linking. Frozen cells were lysed using standard techniques and […] of lysate was incubated for 30 minutes at room temperature in 4 mM 1-ethyl-3-[3-(dimethyl-amino)propyl]carbodimide (EDC), 4 mM sulpho-NHS, 20 mM HEPES (pH 7.5), 5 mM MgCl2, and 0.03% (w/v) […] to cross-link non-covalently associated proteins. The reaction was stopped by the addition of ammonium acetate to a final concentration of 50 mM. The other aliquot was frozen without cross-linking.
Proteins were extracted from the cells of both aliquots by standard techniques and separated by gel electrophoresis. The gels were probed by Western blot with an antibody raised against PBX1, 2 and 3 (sc-888, Santa Cruz Inc. USA) or an anti-beta actin antibody (sc-1615, Santa Cruz Inc. USA).

[4] = system: PBX/HOX dimers; assay: Western blotting of PBX and PBX/HOX dimers in CD133+ cells (Example 3); type: cell-based, human; settings: 20 μg/ml, EDC cross-linking
Procedure: CD133+ cells (another name for AC133+ cells) were seeded in duplicate at 4×10^4 cells/ml in IMDM (Life Technologies), 10% FCS (Sigma Aldrich) and gentamycin (50 μg/ml Life Technologies) and Thrombopoietin (TPO) 10 ng/ml, Flt3-Ligand (FL) 50 ng/ml & c-KitL (K) 20 ng/ml), all obtained from R and D systems Ltd., UK. (Forraz et al., 2002). The HXP peptide (N-term: WYPWMKKHHRQIKIWFQNRRMKWKK: C-term; Eurogentec, Belgium) and control CXP peptide (N-term: WCCLADRHGRQIKIWFQNRRMKWKK: C-term; Eurogentec, Belgium) were added to culture medium at a concentration of 20 μg/ml. To withdraw peptides from culture, cells were washed twice in IMDM or RPMI and reseeded at prewash cell densities. Primary cells were cultured for 3 weeks at 37° C., 5% CO2 in humidified atmosphere and enumerated by a […] exclusion method with a heamocytometer.
Protein was extracted from HXP-treated or CXP-treated CD133+ cells (20 μg/ml). C-20 antibody that recognises all three human PBX gene proteins (sc-888, Santa Cruz Biotechnology Inc., USA; Monica et al., 1991). Protein cross linking was performed with 2 mM 1-ethyl-3-[3-(dimethylamino)propyl]carbodiimide (EDC) (Pierce Biotechnology, USA), in cell lysates diluted 1:10 in conjugation buffer (0.1M 2-[N-morpholino]ethane sulphonic acid, pH 5). […]

[5] = Stability in human serum at 37° C., denaturing PAGE and silver stain
Procedure: 30 μg of HXP(10) or HXP peptide were incubated in 50 μl of human serum at 37° C. for the times shown. Samples were run on a denaturing PAGE and silver stained.

[6] = comparison with other peptide based pharmaceuticals; cited from earlier work

For “HOX B4: recombinant full length Xenopus laevis sequence”, the “AC133+ cell proliferation after HXP peptide withdrawal and co-stimulation with HOX B4” value [1] was “reverted to near control levels”.
With “WAPWEDDHHRQIKIWFQNRRMKWKK (Control Peptide) [reference compound]” the “effect of increased dose on proliferation of malignant cell lines” value [2] was “no significant affect on proliferation” and the “association of PBX proteins with other proteins (HOX proteins)” value [3] was “associated with-other proteins”.
In the case of “WCCLADRHGRQIKIWFQNRRMKWKK (WCCLADRHGRQIKIWFQNRRMKWKK) [CXP, reference compound]”, the “binding of PBX to other proteins / formation of PBX/HOX dimers” value [4] is reported as “not”.
WYPWMKKHHR [HXP4(10), WYPWMKKHHR] showed a half-life [5] of ~4 h.
For low molecular weight heparin, the serum half life [6] is listed as “thirty”.

From patent US7728105B2, “Peptides impairing PBX dependent gene regulation” (St. George's Hospital Medical School, priority 2002, dated 2010)
